Reference: patent US6465176B1, “Method for identifying compounds RNA/RNA binding protein interactions” (Message Pharmaceuticals, Inc., priority 1998, dated 2002)
One block for each compound: values may come before it.

Legend:
[1] = test system: U1 RNA / RNA binding protein (K562 extract); assay: Filter binding competition assay, U1 RNA; settings: increasing concentrations of unlabeled RNA
Description: FIG. 2 is a graph of the amount of radioactively labeled RNA retained on a filter (expressed in percent of the amount of RNA retained on a filter in a reference binding solution) following loading of various binding solutions. All of the binding solutions contained radioactively labeled U1 RNA either alone or including various other components. The first two columns represent binding solutions without RNA binding protein. The remaining columns represent binding solution containing RNA binding protein (K562 extract). […] In this instance, the U1 mutant interacts with less affinity than does the wild type sequence.
(§1) All binding reactions were performed in 96-well v-bottom plates in a final volume of 10 μl. The assays were constituted and performed as described below. Specifically, assays were performed by (1) forming a binding solution including RNA molecules, 7.5 mM BTP at pH 8.5, 10 mM KCl, 5 mM MgCl2, 0.2 mM DTT, and 10% glycerol, (2) heating the binding solution to denature the RNA molecules, (3) cooling the binding solution, (4) adding RNA binding proteins to the binding solution, (5) loading the binding solution onto a filter, and (6) detecting the amount RNA retain on the filter.
To more fully test the filter assay, competitions were performed with U1 and His RNAs as well. U1 RNA has the sequence AAUCCAUUGCAC UCCGGAUUU (SEQ ID NO:10; M14587). His RNA has the sequence […] […]

[2] = test system: His RNA / RNA binding protein; assay: Filter binding competition assay, His RNA; settings: increasing concentrations of unlabeled RNA
Procedure: as §1
To more fully test the filter assay, competitions were performed with U1 and His RNAs as well. U1 RNA has the sequence AAUCCAUUGCAC UCCGGAUUU (SEQ ID NO:10; M14587). His RNA has the sequence […] (SEQ ID NO:11; X57138). […] The results of the U1 and His filter assay competitions reflect the ability of the assay to detect low affinity as well as higher affinity binding interactions.
Competition studies have been performed using the filter assay in which unlabeled wild-type or mutant RNA is added to the reaction at 100 to 10,000 times the concentration of ^32P-RNA to compete for the protein binding of the radiolabeled RNA. […] In this case, the mutant RNA has a weak binding affinity for the RNA binding protein. […]

[3] = test system: IRE RNA / RNA binding protein (K562 protein extract); assay: High throughput filter binding assay, IRE RNA with K562 protein extract; settings: increasing concentrations: hemin 1 to 100 μM, FeCl3 and desferroxiamine 1 μM to 1 mM
Description: FIG. 3 is a graph of the amount of radioactively labeled RNA retained on a filter (expressed in percent of the amount of RNA retained on a filter in a reference binding solution) following loading of various binding solutions. All of the binding solutions contained radioactively labeled IRE RNA either alone or including various other components. The first column represents a binding solution without RNA binding protein. The remaining columns represent binding solution containing RNA binding protein (K562 extract).
FIG. 5 is a graph of the amount of radioactively labeled RNA retained on a filter (expressed in percent of the amount of RNA retained on a filter in a reference binding solution) following loading of various binding solutions. Alternate columns correspond to binding solutions containing radioactively labeled AUUUA RNA or IRE RNA, either alone or including various other components. The first two column represents binding solutions without RNA binding protein. The remaining columns represent binding solution containing RNA binding protein (K562 extract). Columns 5 through 40 correspond to binding solutions including the indicated amount of the indicated test compound.
as §1, with “filter. […]” for “filter.”
Binding assays were performed with wild-type IRE RNA and K562 protein extract in the presence of sources of iron or iron chelators to determine the ability of the filter assay to detect the modulation of binding interactions by small molecules. […] The reactions were analyzed by gel shifts to visualize the results of the filter assay. […]

[4] = test system: AUUUA RNA / RNA binding protein (K562 extract); assay: High throughput filter binding assay, 32P-labeled AUUUA RNA with K562 protein extract (exploratory library screen)
Description: FIG. 4 is a graph of the amount of radioactively labeled RNA retained on a filter (expressed in percent of the amount of RNA retained on a filter in a reference binding solution) following loading of various binding solutions. All of the binding solutions contained radioactively labeled AUUUA RNA either alone or including various other components. The first column represents a binding solution without RNA binding protein. The remaining columns represent binding solution containing RNA binding protein (K562 extract). Columns 3 through 8 correspond to binding solutions including the indicated test compound.
as §1
The library was initially screened at 10 μM against ^32P-labeled AUUUA RNA. Several methods of introducing the compounds into the binding reaction were tested. Initially the compounds were co-incubated with the RNA and protein, producing modest results. Next, preincubation with either the protein extract or the RNA was tried with improved results.
Seventeen compounds were chosen for further analysis at 100 nM, 1 μM and 10 μM using both AUUUA and IRE RNAs based on the results from three screening efforts (Exps. 29-31). Table 1 summarizes the results from these compounds at 10 μM. The results are also shown graphically in FIG. 4. […] Compounds D9 and H2, chosen as negative controls from the initial screening, continued to have no effect in the dose dependent screen (Exp. 33) and were identified as vehicle controls.
A 96 member random compound library was screened with the disclosed high throughput assay. The compounds were initially screened at 10 μM against ^32P-labeled AUUUA RNA. […] Seventeen compounds were chosen for further analysis at 100 nM, 1 μM and 10 μM using both AUUUA and IRE RNA molecules to determine if any selectivity of the compounds could be detected. […] Gel shifts of these compounds using AUUUA RNA confirmed the activity of the inhibitors.

TNF-α production = settings: previously shown; cited from earlier work
[5] = compound 10 μM, K562 extract, RNA & K562 = 100.00

Compound: U1 wild-type RNA: U1 RNA, sequence AAUCCAUUGCAC UCCGGAUUU (SEQ ID NO:10) (AAUCCAUUGCACUCCGGAUUU; listed as RNA, chemistry not given here)
- competition by unlabeled RNA for binding of labeled U1 RNA (filter assay) [1]: concentration dependent inhibition of binding

Compound: His wild-type RNA: His RNA, sequence AAAAAGGCUCUUUUCAGAGCCACCCA (SEQ ID NO:11) (listed as RNA, chemistry not given here)
- competition by unlabeled RNA for binding of labeled His RNA (filter assay) [2]: concentration dependent inhibition of binding

Compound: CC(=O)N(O)CCCCCNC(=O)CCC(=O)N(O)CCCCCNC(=O)CCC(=O)N(O)CCCCCN [Desferroxiamine, desferroxiamine]
- modulation of IRE/protein binding by small molecules [3]: did not change the amount IRE/protein complex formed

- Avg. % (labeled RNA retained on filter, average of Experiments #29-#31 and #33) ([4]; compound 10 μM, K562 extract): 111.00%
- Labeled RNA retained on filter, percent of RNA & K562 reference, Experiment #29 [4, 5]: 114.53%
- Labeled RNA retained on filter, percent of RNA & K562 reference, Experiment #30 [4, 5]: 66.94%
- Labeled RNA retained on filter, percent of RNA & K562 reference, Experiment #31 [4, 5]: 127.28%
- Labeled RNA retained on filter, percent of RNA & K562 reference, Experiment #33 [4, 5]: 135.24%
Compound: C/C(=N\NC(=N)N)c1cc(NC(=O)CCCCCCCCC(=O)Nc2cc(/C(C)=N/NC(=N)N)cc(/C(C)=N/NC(=N)N)c2)cc(/C(C)=N/NC(=N)N)c1 [Compound G10, CNI-1493]
- effect on counts over the 4 experiments ([4]; 10 μM): substantial increase in counts in 3 of the 4 experiments
- effect on TNF-α production (TNF-α production): post-transcriptionally inhibit TNF-α production

Compound: [Cl][Fe]([Cl])[Cl] [FeCl3]
- modulation of IRE/protein binding by small molecules [3]: concentration-dependent inhibition of binding

Compound: hemin
- modulation of IRE/protein binding by small molecules [3]: concentration-dependent inhibition of binding
